According to patent US3965109A, “Certain aryl amino pyridines” (priority 1971, dated 1976):

What was measured:
Format in all cases: in vivo
[1] = tested on: Plasmopara viticola (vine); assay: Fungicidal test against foliar disease C (foliage spray plus soil drench); conditions: 100 ppm spray and drench; 10 days
[2] = tested on: Phytophthora infestans (tomato); conditions: 100 ppm spray and drench; 3 days
[3] = tested on: Puccinia recondita (wheat); assay: Fungicidal test against foliar disease A (foliage spray plus soil drench); conditions: 100 ppm spray and drench; 10 days
Uncinula necator (vine) = assay: Fungicidal test against foliar disease D (foliage spray plus soil drench); conditions: 100 ppm spray and drench; 10 days
[4] = tested on: Piricularia oryzae (rice); conditions: 100 ppm spray and drench; 7 days
Wheat = assay: Herbicidal test, pre- and post-emergence
Aphis fabae = assay: Pest toxicity test; conditions: 0.1% by weight; broad bean; 2 days
Maize = assay: Herbicidal test, pre- and post-emergence
[5] = tested on: Phaedon cochleariae (mustard beetles); assay: Pest toxicity test
Megoura viceae = assay: Pest toxicity test; conditions: 0.1% by weight; broad bean; 2 days
[6] = tested on: Aedes aegypti (mosquito adults); assay: Pest toxicity test; conditions: 0.01% by weight; plywood; 1 day
Tomato = assay: Herbicidal test, pre- and post-emergence
[7] = tested on: Tetranychus telarius (red spider mites, adults); assay: Pest toxicity test; conditions: 0.1% by weight; French bean; 3 days
[8] = tested on: Aedes aegypti (mosquito larvae); assay: Pest toxicity test; conditions: 0.01% by weight; water; 1 day
[9] = tested on: Tetranychus telarius (red spider mites, eggs); assay: Pest toxicity test; conditions: 0.1% by weight; French bean; 3 days
Lettuce = assay: Herbicidal test, pre- and post-emergence
[10] = tested on: Pieris brassicae (cabbage white caterpillars); assay: Pest toxicity test; conditions: 0.1% by weight, 2 days
[11] = tested on: Plutella maculipennis (diamond back moth larvae); assay: Pest toxicity test
[12] = tested on: Musca domestica (houseflies); assay: Pest toxicity test, contact test; conditions: 0.1% by weight; milk/sugar; 2 days; flies sprayed directly
Carrot = assay: Further herbicidal test, various rates; conditions: 5 lb/acre; scale 0 to 5 (complete kill)
Sugar beet = assay: Further herbicidal test, various rates; conditions: 5 lb/acre; scale 0 to 5 (complete kill)
Rice = assay: Further herbicidal test, various rates; conditions: 5 lb/acre; scale 0 to 5 (complete kill)
Oat = assay: Further herbicidal test, various rates; conditions: 5 lb/acre; scale 0 to 5 (complete kill)
Onion = assay: Further herbicidal test, various rates; conditions: 5 lb/acre; scale 0 to 5 (complete kill)
Barley = assay: Further herbicidal test, various rates; conditions: 5 lb/acre; scale 0 to 5 (complete kill)
Pea = assay: Further herbicidal test, various rates; conditions: 5 lb/acre; scale 0 to 5 (complete kill)
Kale = assay: Further herbicidal test, various rates; conditions: 5 lb/acre; scale 0 to 5 (complete kill)
[13] = 10 kg/ha, scale 0 to 3 (complete kill)
[14] = 0.1% by weight, mustard/paper, 2 days
[15] = 10 lb/acre (11.2 kg/ha), scale 0 (no effect) to 3 (complete kill)

In the case of `O=[N+]([O-])c1ccc(Nc2c(Cl)c(F)nc(F)c2Cl)cc1C(F)(F)F` [Compound 36, 3,5-Dichloro-2,6-difluoro-4(4-nitro-3-trifluoromethylanilino) pyridine], the “Amount of disease grading, disease C (Table 4)” value (from here on “Amount … disease C (Table 4)”) [1] is reported as 3 (0 to 5), the “Amount of disease grading, disease B (Table 4)” value (from here on “Amount … disease B (Table 4)”) [2] is reported as 2 (6 to 25) and the “Amount of disease grading, disease A (Table 4)” value (“Amount … disease A (Table 4)” for short) [3] is reported as 2 (6 to 25). The “Amount of disease grading, disease D (Table 4)” value (from here on “Amount … disease D (Table 4)”) (Uncinula necator (vine)) was 0 (61 to 100) and the “Amount of disease grading, disease E (Table 4)” value (from here on “Amount … disease E (Table 4)”) [4] was 1 (26 to 60).
With `O=[N+]([O-])c1ccc(Nc2c(F)c(F)nc(F)c2Cl)c([N+](=O)[O-])c1` [Compound 38, 3-Chloro-4(2,4-dinitroanilino)-2,5,6-trifluoropyridine] the “Damage to plants, post-emergence” value (Wheat; [13]) was 0, the “Damage to plants, pre-emergence” value (Wheat; [13]) was 2 and the “Mortality grading (kill)” value (Aphis fabae) was 0 (O represents less than 30% kill). The “Damage to plants, post-emergence” value (Maize; [13]) was 0, the “Damage to plants, pre-emergence” value (Maize; [13]) was 0 and the “Mortality grading (kill)” value ([5]; in vivo) was 0 (key: O represents less than 30% kill; 1 represents 30 - 49% kill; 2 represents 60 - 90% kill; 3 represents over 90% kill; C indicates a chemosterilant effect.; A indicates an antifeeding effect.). For the same compound, the “Mortality grading (kill)” value (Megoura viceae) was 0 (O represents less than 30% kill), the “Mortality grading (kill)” value [6] was 0 (O represents less than 30% kill) and the “Damage to plants, post-emergence” value (Tomato; [13]) was 3. For the same compound, the “Damage to plants, pre-emergence” value (Tomato; [13]) was 3, the “Mortality grading (kill)” value [7] was 3 (3 represents over 90% kill) and the “Mortality grading (kill)” value [8] was 3 (3 represents over 90% kill). For the same compound, the “Amount … disease C (Table 4)” value [1] was 3 (0 to 5), the “Mortality grading (kill)” value [9] was 3 (3 represents over 90% kill) and the “Damage to plants, post-emergence” value (Lettuce; [13]) was 3. The “Damage to plants, pre-emergence” value (Lettuce; [13]) was 3, the “Amount … disease A (Table 4)” value [3] was 1 (26 to 60) and the “Amount … disease D (Table 4)” value (Uncinula necator (vine)) was 3 (0 to 5). For the same compound, the “Amount … disease E (Table 4)” value [4] was 2 (6 to 25), the “Mortality grading (kill)” value [10] was 3 (3 represents over 90% kill) and the “Mortality grading (kill)” value ([11]; in vivo) was 0 (key: O represents less than 30% kill; 1 represents 30 - 49% kill; 2 represents 60 - 90% kill; 3 represents over 90% kill; C indicates a chemosterilant effect.; A indicates an antifeeding effect.). The “Mortality grading (kill), contact test” value [12] was 0 (O represents less than 30% kill).
For `CN(C)S(=O)(=O)c1cc(Cl)c(Nc2c(Cl)c(F)nc(F)c2Cl)cc1Cl` [Compound 31, 3,5-Dichlor-2,6-difluoro-4(2,5-dichlor-4-N,N-dimethylsulphamoylanilino)pyridine], the “Amount … disease C (Table 4)” value [1] was 3 (0 to 5), the “Amount … disease B (Table 4)” value [2] was 0 (61 to 100) and the “Amount … disease A (Table 4)” value [3] was 2 (6 to 25). For the same compound, the “Amount … disease D (Table 4)” value (Uncinula necator (vine)) was 3 (0 to 5) and the “Amount … disease E (Table 4)” value [4] was 0 (61 to 100).
In the case of `O=[N+]([O-])c1cc([N+](=O)[O-])c(Nc2c(F)c(F)nc(F)c2F)cc1F` [Compound 39, 4(2,4-Dinitro-5-fluoranilino)tetrafluoropyridine], the “Amount … disease C (Table 4)” value [1] is reported as 3 (0 to 5), the “Amount … disease B (Table 4)” value [2] is reported as 2 (6 to 25) and the “Amount … disease A (Table 4)” value [3] is reported as 1 (26 to 60). For the same compound, the “Amount … disease D (Table 4)” value (Uncinula necator (vine)) was 0 (61 to 100) and the “Amount … disease E (Table 4)” value [4] was 1 (26 to 60).
In the case of `Fc1nc(F)c(Cl)c(Nc2cccc(C(F)(F)F)c2)c1Cl` [Compound 17, 3,5-Dichloro-2,6-difluoro-4(3-trifluoromethylanilino)pyridine], the “Amount of disease grading, disease C” value [1] is reported as 3 (0 to 5), the “Amount of disease grading, disease B” value [2] is reported as 1 (26 to 60) and the “Amount of disease grading, disease A” value [3] is reported as 0 (61 to 100). The “Amount of disease grading, disease D” value (Uncinula necator (vine)) was 0 (61 to 100) and the “Amount of disease grading, disease E” value [4] was 0 (61 to 100).
`Fc1nc(F)c(Cl)c(Nc2ccccc2)c1Cl` [Compound 2, 4-Anilino-3,5-dichloro-2,6-difluoropyridine] was tested, and the “Mortality grading (kill)” value (Aphis fabae) was 0 (O represents less than 30% kill), the “Mortality grading (kill)” value [5, 14] was 0 (O represents less than 30% kill) and the “Mortality grading (kill)” value (Megoura viceae) was 0 (O represents less than 30% kill). The “Mortality grading (kill)” value [6] was 0 (O represents less than 30% kill), the “Mortality grading (kill)” value [7] was 3 (3 represents over 90% kill) and the “Mortality grading (kill)” value [8] was 0 (O represents less than 30% kill). The “Mortality grading (kill)” value [9] was 0 (O represents less than 30% kill), the “Mortality grading (kill)” value [10] was 0 (O represents less than 30% kill) and the “Mortality grading (kill)” value [11, 14] was 0 (O represents less than 30% kill). The “Mortality grading (kill), contact test” value [12] was 0 (O represents less than 30% kill).
With `CNC(=O)N(c1c(F)c(F)c(C#N)c(F)c1F)c1c(Cl)c(F)nc(OC)c1Cl` [Compound 46] the “Mortality grading (kill)” value (Aphis fabae) was 0 (O represents less than 30% kill), the “Mortality grading (kill)” value [5, 14] was 0 (O represents less than 30% kill) and the “Mortality grading (kill)” value (Megoura viceae) was 0 (O represents less than 30% kill). For the same compound, the “Mortality grading (kill)” value [6] was 0 (O represents less than 30% kill), the “Mortality grading (kill)” value [7] was 2 (2 represents 60 - 90% kill) and the “Mortality grading (kill)” value [8] was 3 (3 represents over 90% kill). The “Mortality grading (kill)” value [9] was 0 (O represents less than 30% kill), the “Mortality grading (kill)” value [10] was 0 (O represents less than 30% kill) and the “Mortality grading (kill)” value [11, 14] was 0 (O represents less than 30% kill). The “Mortality grading (kill), contact test” value [12] was 0 (O represents less than 30% kill).
For `Fc1nc(F)c(Cl)c(Nc2c(F)c(F)c(F)c(F)c2F)c1Cl` [Compound 10, 3,5-Dichloro-2,6-difluoro-4(pentafluoroanilino)pyridine], the “Damage to plants, post-emergence” value (Carrot) was 2, the “Damage to plants, pre-emergence” value (Carrot) was 1 and the “Damage to plants, post-emergence” value (Wheat; [15]) was 1. For the same compound, the “Damage to plants, pre-emergence” value (Wheat; [15]) was 0, the “Damage to plants, post-emergence” value (Sugar beet) was 3 and the “Damage to plants, pre-emergence” value (Sugar beet) was 0. For the same compound, the “Mortality grading (kill)” value (Aphis fabae) was 0 (O represents less than 30% kill), the “Damage to plants, post-emergence” value (Maize; [15]) was 0 and the “Damage to plants, pre-emergence” value (Maize; [15]) was 0. For the same compound, the “Mortality grading (kill)” value ([5]; in vivo) was 0 (key: O represents less than 30% kill; 1 represents 30 - 49% kill; 2 represents 60 - 90% kill; 3 represents over 90% kill; C indicates a chemosterilant effect.; A indicates an antifeeding effect.), the “Damage to plants, post-emergence” value (Rice) was 0 and the “Mortality grading (kill)” value (Megoura viceae) was 0 (O represents less than 30% kill). The “Mortality grading (kill)” value [6] was 2 (2 represents 60 - 90% kill), the “Damage to plants, post-emergence” value (Tomato; [15]) was 3 and the “Damage to plants, pre-emergence” value (Tomato; [15]) was 1. For the same compound, the “Damage to plants, post-emergence” value (Oat) was 0, the “Damage to plants, pre-emergence” value (Oat) was 0 and the “Mortality grading (kill)” value [7] was 3 (3 represents over 90% kill). For the same compound, the “Mortality grading (kill)” value [8] was 2 (2 represents 60 - 90% kill), the “Damage to plants, post-emergence” value (Onion) was 2 and the “Damage to plants, pre-emergence” value (Onion) was 0. The “Damage to plants, post-emergence” value (Barley) was 0, the “Damage to plants, pre-emergence” value (Barley) was 3 and the “Damage to plants, post-emergence” value (Lettuce; [15]) was 3. The “Damage to plants, pre-emergence” value (Lettuce; [15]) was 2, the “Damage to plants, post-emergence” value (Pea) was 0 and the “Damage to plants, pre-emergence” value (Pea) was 3. The “Damage to plants, post-emergence” value (Kale) was 3, the “Damage to plants, pre-emergence” value (Kale) was 1 and the “Mortality grading (kill)” value [10] was 0 (O represents less than 30% kill). For the same compound, the “Mortality grading (kill)” value ([11]; in vivo) was 0 (key: O represents less than 30% kill; 1 represents 30 - 49% kill; 2 represents 60 - 90% kill; 3 represents over 90% kill; C indicates a chemosterilant effect.; A indicates an antifeeding effect.) and the “Mortality grading (kill), contact test” value [12] was 0 (O represents less than 30% kill).
